Test results published in patent publication US20100105758A1 (Centre de Recherche Public de la Sante, priority 2006, published 2010).
“Also recorded” adds a separate entry of the source.

Assays:
THP-1 monocytes = test: Migration assay, modified Boyden chamber coated with gelatin B, MCP-1 gradient; format: cell-based; details: for inhibition of Ado-enhanced cell migration: pre-incubation with TIMP-1 10 ng/mL or GM6001 10 nM or 1 μM
Method: Infiltration of monocytes/macrophages into the myocardium is a hallmark of ventricular remodelling post MI. Cell migration is facilitated by degradation of the ECM by MMP-9. We therefore tested whether the increase in MMP-9 secretion by Ado could improve monocytes migration along a gradient of MCP-1. For this purpose, the top of a modified Boyden chamber was coated with gelatin B and MCP-1 was added in the bottom compartment. Monocytes were treated with Ado before seeding on the microporous membrane of the chamber. […] This effect was inhibited by the synthetic MMP inhibitor GM6001 and the endogenous MMP-9 inhibitor TIMP-1 (FIG. 4).
FIG. 4. Ado increases monocytes migratory capacity. THP-1 monocytes were treated for 24 hours with 10 μM Ado and 10 μM EHNA or vehicle before seeding on the microporous membrane of a modified Boyden chamber pre-coated with gelatin B. 10 ng/mL MCP-1 was added in the bottom compartment. When specified, cells were pre-incubated with TIMP-1 (10 ng/mL) or GM6001 (10 nM or 1 μM) before seeding on the membrane. Cell migration was quantified by fluorescence after 24 hours. […] Results are mean±SD (n=5). * P<0.05 vs no Ado.
Migration assay. Migratory capacity of THP-1 monocytes was studied using a Transwell® system with polycarbonate microporous membranes (5 μm pore size, 24-well chamber, Costar, Lowell, USA). Membranes were coated with a 2% gelatin B solution and allowed to dry at room temperature for 2 hours. MCP-1 (10 ng/mL) was added in the bottom compartment. THP-1 monocytes were cultured in serum- and antibiotic-free medium with or without 10 μM Ado and 10 μM EHNA for 24 hours. Cells were pre-incubated for 30 min with GM 6001 (10 nM or 1 μM) or TIMP-1 (10 ng/mL) before seeding into the upper compartment at a concentration of 7.5×10^4 cells per well. After 24 hours, cells that migrated through the membrane were detached, lysed and stained by the CyQuant GR® dye (Invitrogen) for 15 min. Fluorescence was read with a POLARstar Optima (BMG LABTECH, Champigny-sur-Marne, France) microplate reader (Xex=492 nm, kem=520 nm).

MMPs = details: given 24-72 hours post MI; cited from earlier work
[1] = tested on: THP-1-derived macrophages; test: MMP-9 secretion by THP-1-derived macrophages, gelatin zymography and densitometry; format: cell-based; details: for MMP-9 secretion (zymography), modulators of Ado metabolism: added alone or in combination, Ado 10 μM, EHNA 10 μM, DIP 10 μM
Method: Cells were incubated for 15 min with increasing concentrations of Ado and 10 μM EHNA before differentiation with 150 nM PMA for 48 hours. […] Concentrations of 10 μM Ado and 10 μM EHNA were used in further experiments. […] FIG. 2. […] THP-1 cells were treated for 15 min with Ado and 10 μM EHNA or vehicle before differentiation to macrophages with 150 nM PMA for 48 hours. EHNA, which inhibits Ado deaminase, and DIP, which inhibits Ado transport, were used to enhance endogenous Ado concentration. Gelatinase activity was measured in cell-free conditioned medium by zymography and densitometry. A. A representative zymogram is shown. […] C. Time-course experiment. […] FIG. 3. […] A. THP-1 cells were treated for 15 min with 10 μM Ado and 10 μM EHNA or vehicle before differentiation to macrophages with 150 nM PMA for 48 hours. […] B. THP-1 cells were treated for 15 min with 0.1, 1 or 10 μM of Ado receptors agonists (CPA, A1-specific; CGS21680, A2a-specific; IB-MECA, A3-specific). […] Gelatinase activity was assessed in conditioned medium. […] C. […] Cells were transfected with siRNA specific for A2a, A2b or A3 Ado receptors, incubated for 48 hours to achieve down-regulation of Ado receptors expression, treated for 15 min with 10 μM Ado and 10 μM EHNA or vehicle before differentiation to macrophages with 150 nM PMA for 48 hours. Conditioned medium was analysed by gelatin zymography. […] Cell culture. All cell culture reagents were from Lonza (Verviers, Belgium) unless specified otherwise. Peripheral venous blood was obtained from healthy volunteers. Peripheral blood mononuclear cells were obtained by Ficoll gradient. Monocytes were purified by negative selection using the Monocyte Isolation Kit II (Myltenyi Biotec GmbH, Bergisch Gladbach, Germany). […] Macrophages were incubated for 15 minutes with Ado/EHNA (10 μmol/L) or vehicle, then LPS (100 ng/ml) or vehicle was added and cells were incubated for another 24 hours before harvesting. Cells from the monocyte-like line THP-1 (ATCC, LGC Promochem, Teddington, UK) were propagated at 37° C.-5% CO2 in RPMI 1640 medium supplemented with L-glutamine (2 mM), Penicillin (100 Units/ml), Streptomycin (100 μg/ml), non-essential amino acids solution (1 μM), sodium pyruvate (1 mM), and 10% heat-inactivated fetal calf serum (FCS) (Eurobio, Les Ulys, France). For experiments, FCS in culture medium was reduced to 1%. Cells were treated for 15 min with EHNA vehicle (DMSO), Ado (0.01 to 100 μM), Ado receptors agonists (0.1 to 10 μM), EHNA (10 μM) or Dipyridamole (DIP) (10 μM). Cells were then differentiated into macrophages with 150 nM phorbol myristate actetate (PMA) for 24 hours. Macrophages were subsequently treated with LPS (1 to 1000 ng/ml), fMLP (10^−7 M) or H2O2 (10 mM) for another 24 hours. Analysis of gelatinase activity. Gelatin zymography was performed on culture supernatants to assess secreted MMP-9 activity. Briefly, conditioned medium was loaded on SDS-polyacrylamide gels containing 0.2% gelatin under non reducing conditions. After electrophoresis, gels were washed and incubated overnight at 37° C. in assay buffer (50 mM Tris-HCl, pH 7.6, 200 mM NaCl, 5 mM CaCl2, and 0.02% Brij35). Subsequently, gels were stained in 0.1% Coomassie Blue and destained in 25% ethanol/8% acetic acid. Densitometry was achieved using the Gel Logic 2200 Digital Imaging system and Aida Software (Kodak, Zavemtem, Belgium).

[2] = tested on: THP-1-derived macrophages; test: Ado receptor mRNA expression in THP-1-derived macrophages, quantitative PCR; format: cell-based; details: 10 μM Ado and 10 μM EHNA, PMA 48 hours
Method: FIG. 3. […] A. THP-1 cells were treated for 15 min with 10 μM Ado and 10 μM EHNA or vehicle before differentiation to macrophages with 150 nM PMA for 48 hours. […] B. THP-1 cells were treated for 15 min with 0.1, 1 or 10 μM of Ado receptors agonists (CPA, A1-specific; CGS21680, A2a-specific; IB-MECA, A3-specific). […] Gelatinase activity was assessed in conditioned medium. […] C. […] Cells were transfected with siRNA specific for A2a, A2b or A3 Ado receptors, incubated for 48 hours to achieve down-regulation of Ado receptors expression, treated for 15 min with 10 μM Ado and 10 μM EHNA or vehicle before differentiation to macrophages with 150 nM PMA for 48 hours. Conditioned medium was analysed by gelatin zymography.
Cell culture. All cell culture reagents were from Lonza (Verviers, Belgium) unless specified otherwise. Peripheral venous blood was obtained from healthy volunteers. Peripheral blood mononuclear cells were obtained by Ficoll gradient. Monocytes were purified by negative selection using the Monocyte Isolation Kit II (Myltenyi Biotec GmbH, Bergisch Gladbach, Germany). […] Macrophages were incubated for 15 minutes with Ado/EHNA (10 μmol/L) or vehicle, then LPS (100 ng/ml) or vehicle was added and cells were incubated for another 24 hours before harvesting. […]
(§1) Real time quantitative PCR.

[3] = tested on: primary human macrophages; test: MMP-9 secretion by primary macrophages, ELISA in conditioned medium; format: cell-based; details: Ado and EHNA 10 μmol/L each, 15 min then 24 hours, with or without LPS 100 ng/ml
Method: FIG. 1. […] Cell culture. All cell culture reagents were from Lonza (Verviers, Belgium) unless specified otherwise. Peripheral venous blood was obtained from healthy volunteers. Peripheral blood mononuclear cells were obtained by Ficoll gradient. Monocytes were purified by negative selection using the Monocyte Isolation Kit II (Myltenyi Biotec GmbH, Bergisch Gladbach, Germany). […] Macrophages were incubated for 15 minutes with Ado/EHNA (10 μmol/L) or vehicle, then LPS (100 ng/ml) or vehicle was added and cells were incubated for another 24 hours before harvesting. Cells from the monocyte-like line THP-1 (ATCC, LGC Promochem, Teddington, UK) were propagated at 37° C.-5% CO2 in RPMI 1640 medium supplemented with L-glutamine (2 mM), Penicillin (100 Units/ml), Streptomycin (100 μg/ml), non-essential amino acids solution (1 μM), sodium pyruvate (1 mM), and 10% heat-inactivated fetal calf serum (FCS) (Eurobio, Les Ulys, France). For experiments, FCS in culture medium was reduced to 1%. Cells were treated for 15 min with EHNA vehicle (DMSO), Ado (0.01 to 100 μM), Ado receptors agonists (0.1 to 10 μM), EHNA (10 μM) or Dipyridamole (DIP) (10 μM). Cells were then differentiated into macrophages with 150 nM phorbol myristate actetate (PMA) for 24 hours. Macrophages were subsequently treated with LPS (1 to 1000 ng/ml), fMLP (10^−7 M) or H2O2 (10 mM) for another 24 hours. […] ELISA.

[4] = in combination with lidocaine or primary angioplasty; cited from earlier work
[5] = tested on: THP-1-derived macrophages; test: MMP-9 mRNA expression in THP-1-derived macrophages, quantitative PCR; format: cell-based; details: THP-1 cells, after 48 hours of differentiation
Method: FIG. 2. […] THP-1 cells were treated for 15 min with Ado and 10 μM EHNA or vehicle before differentiation to macrophages with 150 nM PMA for 48 hours. EHNA, which inhibits Ado deaminase, and DIP, which inhibits Ado transport, were used to enhance endogenous Ado concentration. Gelatinase activity was measured in cell-free conditioned medium by zymography and densitometry. A. A representative zymogram is shown. […] C. Time-course experiment.
Cell culture. All cell culture reagents were from Lonza (Verviers, Belgium) unless specified otherwise. Peripheral venous blood was obtained from healthy volunteers. Peripheral blood mononuclear cells were obtained by Ficoll gradient. Monocytes were purified by negative selection using the Monocyte Isolation Kit II (Myltenyi Biotec GmbH, Bergisch Gladbach, Germany). […] Macrophages were incubated for 15 minutes with Ado/EHNA (10 μmol/L) or vehicle, then LPS (100 ng/ml) or vehicle was added and cells were incubated for another 24 hours before harvesting. Cells from the monocyte-like line THP-1 (ATCC, LGC Promochem, Teddington, UK) were propagated at 37° C.-5% CO2 in RPMI 1640 medium supplemented with L-glutamine (2 mM), Penicillin (100 Units/ml), Streptomycin (100 μg/ml), non-essential amino acids solution (1 μM), sodium pyruvate (1 mM), and 10% heat-inactivated fetal calf serum (FCS) (Eurobio, Les Ulys, France). […]
as §1

neutrophils = details: through A2a receptor; cited from earlier work
[6] = tested on: primary human macrophages; test: MMP-9 mRNA expression in primary macrophages, quantitative PCR; format: cell-based; details: Ado and EHNA 10 μmol/L each, 24 hours
Method: Cell culture. All cell culture reagents were from Lonza (Verviers, Belgium) unless specified otherwise. Peripheral venous blood was obtained from healthy volunteers. Peripheral blood mononuclear cells were obtained by Ficoll gradient. Monocytes were purified by negative selection using the Monocyte Isolation Kit II (Myltenyi Biotec GmbH, Bergisch Gladbach, Germany). […] Macrophages were incubated for 15 minutes with Ado/EHNA (10 μmol/L) or vehicle, then LPS (100 ng/ml) or vehicle was added and cells were incubated for another 24 hours before harvesting. Cells from the monocyte-like line THP-1 (ATCC, LGC Promochem, Teddington, UK) were propagated at 37° C.-5% CO2 in RPMI 1640 medium supplemented with L-glutamine (2 mM), Penicillin (100 Units/ml), Streptomycin (100 μg/ml), non-essential amino acids solution (1 μM), sodium pyruvate (1 mM), and 10% heat-inactivated fetal calf serum (FCS) (Eurobio, Les Ulys, France). For experiments, FCS in culture medium was reduced to 1%. Cells were treated for 15 min with EHNA vehicle (DMSO), Ado (0.01 to 100 μM), Ado receptors agonists (0.1 to 10 μM), EHNA (10 μM) or Dipyridamole (DIP) (10 μM). Cells were then differentiated into macrophages with 150 nM phorbol myristate actetate (PMA) for 24 hours. Macrophages were subsequently treated with LPS (1 to 1000 ng/ml), fMLP (10^−7 M) or H2O2 (10 mM) for another 24 hours.
as §1

TIMP-1: recombinant human protein TIMP-1 (R&D Systems), endogenous MMP-9 inhibitor
inhibition of Ado-enhanced cell migration (THP-1 monocytes): partly prevented; also recorded: inhibited

CNC(=O)[C@H](Cc1c[nH]c2ccccc12)NC(=O)[C@@H](CC(=O)NO)CC(C)C [GM6001, (R)-N-4-Hydroxy-N1-[(S)-2-(1H-indol-3-yl)-1-methylcarbamoly-ethyl]-2-isobutyl-succinamide]
inhibition of Ado-enhanced cell migration (THP-1 monocytes): partly prevented; also recorded: inhibited

COc1ccc(C(=O)Nc2ccc(S(=O)(=O)NC(CC#CCN3CCOCC3)C(=O)O)cc2)cc1 (stereo not shown) [PG-116800]
outcome after MI (MMPs): did not improve outcome | prevention of LV remodelling after MI (MMPs): failed to prevent LV remodelling

CNC(=O)[C@H]1O[C@@H](n2cnc3c(NCc4cccc(I)c4)ncnc32)[C@H](O)[C@@H]1O [IB-MECA, 1-deoxy-1-[6-[[(3-iodophenyl)methyl]amino]-9H-purine-9-yl]-N-methyl-Dribofuranuronamide]
MMP-9 secretion with Ado receptor agonists ([1]; 0.1, 1 or 10 μM agonist for 15 min, EHNA omitted, PMA 48 hours): increase MMP-9 secretion to the same extent as Ado

CCCCCC[C@@H]([C@@H](C)O)n1cnc2c(N)ncnc21 (racemic) [EHNA]
MMP-9 secretion (zymography), modulators of Ado metabolism ([1]; PMA 48 hours): triggered MMP-9 secretion

Nc1ncnc2c1ncn2[C@@H]1O[C@H](CO)[C@@H](O)[C@H]1O [adenosine]
A2b receptor expression (mRNA) [2]: more than two-fold increase | A3 receptor expression (mRNA) [2]: more than two-fold increase | MMP-9 secretion in cell supernatant as measured by ELISA [3]: mild but significant increase | MMP-9 secretion in cell supernatant as measured by ELISA ([3]; listed as Ado): significantly increased | cardiac function of patients with MI [4]: improved cardiac function | MMP-9 mRNA expression [5]: more than two-fold increase | cell migration through the gelatin layer (THP-1 monocytes; 10 μM Ado and 10 μM EHNA for 24 hours, MCP-1 10 ng/mL, migration after 24 hours): enhanced cell migration | increase of MMP-9 production ([1]; 100 μM Ado with 10 μM EHNA, 15 min before differentiation with 150 nM PMA for 48 hours): 3 fold | MMP-9 secretion (zymography), modulators of Ado metabolism ([1]; PMA 48 hours): triggered MMP-9 secretion | incubation period necessary to reproduce the effect of Ado on MMP-9 ([1]; time-course experiment, zymography of culture medium): at least 18 hours | MMP-9 secretion by neutrophils (neutrophils): inhibits MMP-9 secretion | MMP-9 mRNA expression [6]: increased

OCCN(CCO)c1nc(N2CCCCC2)c2nc(N(CCO)CCO)nc(N3CCCCC3)c2n1 [DIP, Dipyridamole]
MMP-9 secretion (zymography), modulators of Ado metabolism ([1]; PMA 48 hours): triggered MMP-9 secretion
